Source: EPA's ToxRefDB 2

Experiments:
rat [1] = conditions: Subchronic dermal toxicity, sprague dawley, Topical, dose end: 13 week, group: systemic, systemic / in life observation / clinical signs / erythema
rat [2] = conditions: Prenatal developmental toxicity study, sprague dawley, Oral, Gavage/Intubation, dose end: 15 GD
mouse [3] = conditions: Subchronic oral toxicity in rodents, cd1, Feed, dose end: 3 month, group: systemic
rat [4] = conditions: Subchronic oral toxicity in rodents, Feed, dose end: 13 week, group: systemic
rat [5] = conditions: Prenatal developmental toxicity study, other, Oral, Gavage/Intubation, dose end: 15 GD
dog [6] = conditions: Chronic toxicity, beagle, Oral, Feed, dose end: 52 week, group: systemic
dog [7] = conditions: Subchronic oral toxicity in nonrodent, beagle, Feed, dose end: 3 month, group: systemic
mouse [8] = conditions: Carcinogenicity; cd1; Oral; Feed; dose end: 78 week; group: systemic; systemic / organ weight / liver / nos + systemic / pathology microscopic / liver / hypertrophy + systemic / pathology microscopic / liver / …
rat [9] = conditions: Multigenerational reproductive toxicity study, sprague dawley, Oral, Feed, dose end: 2 generation
rat [10] = conditions: Combined chronic toxicity/carcinogenicity, sprague dawley, Oral, Feed, dose end: 2 year, group: systemic
[11] = group: developmental, systemic / in life observation / body weight / fetal weight
[12] = group: maternal, systemic / in life observation / body weight / body weight gain + systemic / in life observation / clinical signs / abnormal movements + …
[13] = systemic / pathology microscopic / liver / hypertrophy
[14] = systemic / pathology microscopic / liver / hypertrophy + systemic / clinical chemistry / alanine aminotransferase (alt/sgpt) / alanine …
[15] = systemic / pathology microscopic / liver / vacuolization
[16] = systemic / pathology microscopic / liver / vacuolization + systemic / clinical chemistry / cholesterol / cholesterol + systemic / clinical …
[17] = group: developmental, developmental / developmental malformation / bone / short supernumerary + systemic / in life observation / body weight / fetal weight
[18] = group: maternal, reproductive / reproductive performance / implantations / implantations + reproductive / reproductive performance / resorptions / …
[19] = systemic / in life observation / body weight / body weight gain
[20] = systemic / in life observation / body weight / body weight gain + systemic / clinical chemistry / alkaline phosphatase (alp/alk) / alkaline …
[21] = systemic / pathology microscopic / liver / hypertrophy + systemic / clinical chemistry / alkaline phosphatase (alp/alk) / alkaline …
[22] = group: offspring, developmental / offspring survival late / viability index / viability index + systemic / in life observation / body weight / offspring (pup…
[23] = group: parental, systemic / in life observation / body weight / body weight + systemic / in life observation / food consumption / food consumption + systemic…
[24] = group: reproductive, reproductive / reproductive performance / dystocia / dystocia + reproductive / reproductive performance / gestational length / gestational …
[25] = systemic / hematology / hematocrit (hct) / hematocrit (hct) + systemic / hematology / hemoglobin (hgb) / hemoglobin (hgb) + systemic / …

Question: What does the source list for `O=[N+]([O-])C(CO)(CO)CO` [2-(Hydroxymethyl)-2-nitro-1,3-propanediol]?
Answer: LEL (rat [1]): 1000 mg/kg/day; LOAEL (rat [1]): > 1000 mg/kg/day; NEL (rat [1]): 500 mg/kg/day; NOAEL (rat [1]): ≥ 1000 mg/kg/day; LEL (rat [2]; [11]): 750 mg/kg/day; LOAEL (rat [2]; [11]): > 750 mg/kg/day; NEL (rat [2]; [11]): 375 mg/kg/day; NOAEL (rat [2]; [11]): ≥ 750 mg/kg/day; LEL (rat [2]; group: maternal, reproductive / reproductive performance / resorptions / resorptions): 375 mg/kg/day; LOAEL (rat [2]; [12]): 750 mg/kg/day; NEL (rat [2]; [12]): 50 mg/kg/day; NOAEL (rat [2]; [12]): 375 mg/kg/day

Question: What does the source list for `N#CC(CCc1ccc(Cl)cc1)(Cn1cncn1)c1ccccc1` (stereo unspecified) [Fenbuconazole]?
Answer: LEL (mouse [3]; [13]): 11.1 mg/kg/day; LOAEL (mouse [3]; [13]): 11.1 mg/kg/day; NEL (mouse [3]; [14]): 3.8 mg/kg/day; NOAEL (mouse [3]; [14]): 3.8 mg/kg/day; LEL (rat [4]; [15]): 5.1 mg/kg/day; LOAEL (rat [4]; [15]): 5.1 mg/kg/day; NEL (rat [4]; [16]): 1.3 mg/kg/day; NOAEL (rat [4]; [16]): 1.3 mg/kg/day; LEL (rat [5]; [17]): 150 mg/kg/day; LOAEL (rat [5]; [17]): > 150 mg/kg/day; NEL (rat [5]; [17]): 75 mg/kg/day; NOAEL (rat [5]; [17]): ≥ 150 mg/kg/day; LEL (rat [5]; [18]): 75 mg/kg/day; LOAEL (rat [5]; [18]): 75 mg/kg/day; NEL (rat [5]; [18]): 30 mg/kg/day; NOAEL (rat [5]; [18]): 30 mg/kg/day; LEL (dog [6]; [19]): 3.75 mg/kg/day; LOAEL (dog [6]; [19]): 3.75 mg/kg/day; NEL (dog [6]; [20]): 0.38 mg/kg/day; NOAEL (dog [6]; [20]): 0.38 mg/kg/day; LOAEL (dog [7]; [13]): 13.3 mg/kg/day; NEL (dog [7]; [21]): 3.3 mg/kg/day; NOAEL (dog [7]; [21]): 3.3 mg/kg/day; LEL (dog [7]; systemic / pathology microscopic / liver / hypertrophy + systemic / organ weight / liver / absolute + systemic / organ weight / liver / …): 13.3 mg/kg/day; LEL (mouse [8]): 26.3 mg/kg/day; LOAEL (mouse [8]): 26.3 mg/kg/day; NEL (mouse [8]): 1.28 mg/kg/day; NOAEL (mouse [8]): 1.28 mg/kg/day; LEL (rat [9]; [22]): 40 mg/kg/day; LOAEL (rat [9]; [22]): 40 mg/kg/day; NEL (rat [9]; [22]): 4 mg/kg/day; NOAEL (rat [9]; [22]): 4 mg/kg/day; LOAEL (rat [9]; [23]): 40 mg/kg/day; NEL (rat [9]; [23]): 0.4 mg/kg/day; NOAEL (rat [9]; [23]): 4 mg/kg/day; LEL (rat [9]; group: parental, systemic / organ weight / liver / absolute + systemic / organ weight / liver / relative to body weight): 4 mg/kg/day; LEL (rat [9]; [24]): 40 mg/kg/day; LOAEL (rat [9]; [24]): 40 mg/kg/day; NEL (rat [9]; [24]): 4 mg/kg/day; NOAEL (rat [9]; [24]): 4 mg/kg/day; LEL (rat [10]; systemic / hematology / hematocrit (hct) / hematocrit (hct) + systemic / hematology / hemoglobin (hgb) / hemoglobin (hgb)): 3.03 mg/kg/day; NEL (rat [10]; [25]): 0.31 mg/kg/day; NOAEL (rat [10]; [25]): 3.03 mg/kg/day; LOAEL (rat [10]; systemic / pathology microscopic / thyroid gland / adenoma/carcinoma combined + systemic / organ weight / liver / absolute + systemic / …): 30.6 mg/kg/day
